Consider 19 compounds from US11420970B1 (NOVARTIS AG, priority 2019, dated 2022).

Test [1] relates to cellular H3K36me2 level in multiple myeloma cell line KMS11 (t(4;14)+). Put plainly: H3K36me2 cellular ELISA assay in KMS11-Par line. It counts as cell-based. To be noted: Homo sapiens, KMS-11, ELISA, read-out: H3K36me2 ELISA in KMS11-Par. The method, then:
H3K36Me2 Cellular ELISA Assay in KMS11-Par Line
An ELISA (enzyme-linked immunosorbent assay) based assay was used to test the ability of candidate compound to reduce cellular H3K36me2 level in multiple myeloma cell line KMS11 (t(4;14)+). KMS11 (Horizon Discovery Ltd.) cells are maintained in RPM11640 media with 12.5% FBS and 50 U/ml Penicillin-Streptomycin. For assay compound treatment, single cell suspension was prepared in Opti-MEM supplemented with B-27 and N2 supplement (Invitrogen 11058-021, 17504-044, 17502-048) for ELISA and in maintenance media for cellTiter Glo (CTG) viability assay. One day prior to cell treatment, 1,250 KMS11 cells were seeded into 384-well Greiner CellStar TC plate (Greiner #781086) at the final volume of 30 μL/well.
Cells were treated with tested compounds at the desired concentration for 72 hours. Crude histone lysate was extracted by 0.4M HCl following neutralization by 0.5M Sodium phosphate, dibasic (Na2HPO4), pH ˜12.5. Equal amount of histone lysate was loaded to Corning 384-well high biding plate (Corning #3577, black) for H3K36m2 and to Thermo 384-well high binding Nunc plate (Thermo #460372, white) for total H3.
Histone bound plates were washed and blocked with 5% BSA. […] The abundance of H3K36me2 and total H3 was measured by Chemiluminesce on a plate reader. Cell viability was monitored on a parallel seeded plate with CellTiter-Glo reagent (Promega #G7573).
On the technique in general: An ELISA detects its analyte on a solid surface through an enzyme-linked reagent.

A further test has as its target NSD2 [1-1365] (Homo sapiens (Human), UniProt O96028). The test is described as follows: LC-MS/MS-based NSD2 enzymatic assay (SAH production). It counts as biochemical. The note with it: read-out: NSD2 IC50. The procedure, abridged: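 SAH formed was measured by LC-MS/MS using d4-SAH as internal standard and an SAH calibration curve. Compounds were preincubated 20 min with NSD2 [1-1365] and SAM; mouse-liver nucleosome then started a 90 min room-temperature reaction (8 nM enzyme, 1 μM SAM, 400 nM nucleosome final, pH 8.0), stopped with TFA.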

The mark [2] stands for this setting: KMS11-Par line (t(4;14)+), 72 hours treatment.
The mark [3] stands for this setting: NSD2 biochemical activity, class symbols.

Read-outs that look alike come from different tables or passages of the source.

Sequence of NSD2 [1-1365] (O96028 whole entry): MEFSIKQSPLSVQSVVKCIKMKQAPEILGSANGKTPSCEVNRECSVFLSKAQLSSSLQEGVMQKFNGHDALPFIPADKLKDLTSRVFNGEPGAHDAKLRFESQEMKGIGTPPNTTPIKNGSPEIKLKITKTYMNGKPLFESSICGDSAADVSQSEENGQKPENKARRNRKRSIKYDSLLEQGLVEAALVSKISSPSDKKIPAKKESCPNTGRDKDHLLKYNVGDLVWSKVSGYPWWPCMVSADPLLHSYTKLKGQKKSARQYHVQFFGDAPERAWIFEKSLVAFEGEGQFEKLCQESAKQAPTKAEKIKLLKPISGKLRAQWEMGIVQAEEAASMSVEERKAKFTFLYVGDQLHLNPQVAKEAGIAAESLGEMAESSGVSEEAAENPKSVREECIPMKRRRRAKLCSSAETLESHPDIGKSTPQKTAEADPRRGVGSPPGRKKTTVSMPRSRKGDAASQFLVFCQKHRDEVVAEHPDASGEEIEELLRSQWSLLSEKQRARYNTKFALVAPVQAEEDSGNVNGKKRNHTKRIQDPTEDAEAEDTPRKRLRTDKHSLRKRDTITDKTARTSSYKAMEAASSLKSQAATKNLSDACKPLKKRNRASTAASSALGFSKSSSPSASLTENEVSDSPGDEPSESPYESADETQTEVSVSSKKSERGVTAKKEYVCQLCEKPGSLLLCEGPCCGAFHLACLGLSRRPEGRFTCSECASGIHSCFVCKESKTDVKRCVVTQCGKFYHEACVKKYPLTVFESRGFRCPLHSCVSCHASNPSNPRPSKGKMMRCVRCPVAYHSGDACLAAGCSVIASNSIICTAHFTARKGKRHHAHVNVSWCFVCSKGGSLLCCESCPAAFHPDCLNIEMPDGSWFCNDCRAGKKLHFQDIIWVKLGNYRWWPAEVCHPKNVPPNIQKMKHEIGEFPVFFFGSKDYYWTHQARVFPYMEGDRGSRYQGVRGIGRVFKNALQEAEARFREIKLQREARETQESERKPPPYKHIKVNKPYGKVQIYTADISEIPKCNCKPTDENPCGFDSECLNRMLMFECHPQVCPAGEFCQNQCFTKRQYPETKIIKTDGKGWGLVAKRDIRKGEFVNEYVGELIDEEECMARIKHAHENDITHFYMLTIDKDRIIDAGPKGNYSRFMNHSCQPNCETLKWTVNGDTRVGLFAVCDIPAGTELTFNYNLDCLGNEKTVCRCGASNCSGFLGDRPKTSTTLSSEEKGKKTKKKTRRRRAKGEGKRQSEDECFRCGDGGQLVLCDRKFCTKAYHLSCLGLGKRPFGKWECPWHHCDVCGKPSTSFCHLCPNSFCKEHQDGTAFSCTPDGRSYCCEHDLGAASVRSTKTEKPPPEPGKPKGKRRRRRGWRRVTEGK

Turning to `Nc1ncnc2c1ncn2Cc1cc(-c2ccc(F)c(F)c2)ncc1N1CCCC(N)(c2cnccn2)C1` (centres unmarked) [Example 259, 9-((5-(3-amino-3-(pyrazin-2-yl)piperidin-1-yl)-2-(3,4-difluorophenyl)pyridin-4-yl)methyl)-9H-purin-6-amine], the IC50 is 3540 nM in test [1] (KMS11-Par line, 72 hours) and 10 to 1000 nM at NSD2 [1-1365].

As for `Nc1nccc2c1ncn2Cc1cc(-c2ccc(F)cc2)ncc1N1CCCC(N)(c2ccccn2)C1` (centres unmarked) [Example 266, 1-((5-(3-amino-3-(pyridin-2-yl)piperidin-1-yl)-2-(4-fluorophenyl)pyridin-4-yl)methyl)-1H-imidazo[4,5-c]pyridin-4-amine], the IC50 in test [1] (KMS11-Par line, 72 hours) is 436 nM; on NSD2 [1-1365], 1 to 10 nM.

For the compound `Nc1ncnc2c1ncn2Cc1cc(-c2ccc(F)c(F)c2)ncc1N1CCC[C@](N)(c2ccncc2)C1` [Example 245, (S)-9-((5-(3-amino-3-(pyridin-4-yl)piperidin-1-yl)-2-(3,4-difluorophenyl)pyridin-4-yl)methyl)-9H-purin-6-amine], the IC50 in test [1] (KMS11-Par line, 72 hours) was 2150 nM; at NSD2 [1-1365], 10 to 1000 nM.

For `Nc1ncnc2c1ncn2Cc1cc(-c2ccc(F)c(F)c2)ncc1N1CCC[C@](N)(c2ccnc(Cl)c2)C1` [Example 246, (S)-9-((5-(3-amino-3-(2-chloropyridin-4-yl)piperidin-1-yl)-2-(3,4-difluorophenyl)pyridin-4-yl)methyl)-9H-purin-6-amine], the IC50 is 16700 nM in test [1] (KMS11-Par line, 72 hours) and 10 to 1000 nM on NSD2 [1-1365].

Regarding `Nc1nccc2c1ncn2Cc1cc(-c2ccc(F)c(F)c2)ncc1N1CCC[C@](N)(Cc2nccs2)C1` [Example 48, (S)-1-((5-(3-amino-3-(thiazol-2-ylmethyl)piperidin-1-yl)-2-(3,4-difluorophenyl)pyridin-4-yl)methyl)-1H-imidazo[4,5-c]pyridin-4-amine], the IC50 was 464 nM in test [1] (setting [2]) and 1 to 10 nM on NSD2 [1-1365] (setting [3]).

Regarding `Nc1ncnc2c1ncn2Cc1cc(-c2ccc(F)c(F)c2)ncc1N1CCC[C@](N)(c2ccncc2F)C1` [Example 248, (S)-9-((5-(3-amino-3-(3-fluoropyridin-4-yl)piperidin-1-yl)-2-(3,4-difluorophenyl)pyridin-4-yl)methyl)-9H-purin-6-amine], the IC50 is 2880 nM in test [1] (KMS11-Par line, 72 hours) and 10 to 1000 nM at NSD2 [1-1365].

As to `Cn1cc(C2(N)CCCN(c3cnc(-c4ccc(F)c(F)c4)cc3Cn3cnc4c(N)nccc43)C2)cn1` (centres unmarked) [Example 270, 1-((5-(3-amino-3-(1-methyl-1H-pyrazol-4-yl)piperidin-1-yl)-2-(3,4-difluorophenyl)pyridin-4-yl)methyl)-1H-imidazo[4,5-c]pyridin-4-amine], the IC50 in test [1] (KMS11-Par line, 72 hours) was 15300 nM; at NSD2 [1-1365] it was 10 to 1000 nM.

Consider `CN(C)C(=O)CC[C@@]1(N)CCCN(c2cnc(-c3ccc(F)c(F)c3)cc2Cn2cnc3c(N)ncnc32)C1` [Example 322, (S)-3-(3-amino-1-(4-((6-amino-9H-purin-9-yl)methyl)-6-(3,4-difluorophenyl)pyridin-3-yl)piperidin-3-yl)-N,N-dimethylpropanamide], for which the IC50 in test [1] (KMS11-Par line, 72 hours) was over 33700 nM; at NSD2 [1-1365], 10 to 1000 nM.

On to `Nc1ncnc2c1ncn2Cc1cc(-c2ccc(F)cc2)ncc1N1CCCC(N)(c2cccc(Cl)n2)C1` (centres unmarked) [Example 205, 9-((5-(3-amino-3-(6-chloropyridin-2-yl)piperidin-1-yl)-2-(4-fluorophenyl)pyridin-4-yl)methyl)-9H-purin-6-amine], for which the IC50 in test [1] (KMS11-Par line, 72 hours) is 632 nM; at NSD2 [1-1365], 1 to 10 nM.

`Cc1cccc(C2(N)CCCN(c3cnc(-c4ccc(F)c(F)c4)cc3Cn3cnc4c(N)ncnc43)C2)n1` (centres unmarked) [Example 177, 9-((5-(3-amino-3-(6-methylpyridin-2-yl)piperidin-1-yl)-2-(3,4-difluorophenyl)pyridin-4-yl)methyl)-9H-purin-6-amine]: the IC50 in test [1] (KMS11-Par line, 72 hours) is 407 nM; at NSD2 [1-1365], 1 to 10 nM.

`COCC1CC(N)CN(c2cnc(-c3ccc(F)c(F)c3)cc2Cn2cnc3c(N)ncnc32)C1` (centres unmarked) [Example 308, 9-((5-(3-amino-5-(methoxymethyl)piperidin-1-yl)-2-(3,4-difluorophenyl)pyridin-4-yl)methyl)-9H-purin-6-amine]: the IC50 in test [1] (KMS11-Par line, 72 hours) is 27500 nM; on NSD2 [1-1365], 10 to 1000 nM.

Consider `Nc1nccc2c1ncn2Cc1cc(-c2ccc(F)c(F)c2)ncc1N1CCC[C@](N)(Cc2ccccn2)C1` [Example 51, (S)-1-((5-(3-amino-3-(pyridin-2-ylmethyl)piperidin-1-yl)-2-(3,4-difluorophenyl)pyridin-4-yl)methyl)-1H-imidazo[4,5-c]pyridin-4-amine], for which the figures for the IC50 (in test [1] (setting [2]); on NSD2 [1-1365] (setting [3])) were 1530 nM and 1 to 10 nM, respectively.

With `Nc1ncnc2c1ncn2Cc1cc(-c2ccc(F)c(F)c2)ncc1N1CCC[C@](N)(Cc2cnccn2)C1` [Example 74, (S)-9-((5-(3-amino-3-(pyrazin-2-ylmethyl)piperidin-1-yl)-2-(3,4-difluorophenyl)pyridin-4-yl)methyl)-9H-purin-6-amine], the IC50 in test [1] (setting [2]) was 4220 nM; on NSD2 [1-1365] (setting [3]) it was 10 to 1000 nM.

Take `Nc1nccc2c1ncn2Cc1cc(C2CCC2)ncc1N1CCCC(N)(c2cccc(Cl)n2)C1` (centres unmarked) [Example 267, 1-((5-(3-amino-3-(6-chloropyridin-2-yl)piperidin-1-yl)-2-cyclobutylpyridin-4-yl)methyl)-1H-imidazo[4,5-c]pyridin-4-amine]: the IC50 was 1910 nM in test [1] (KMS11-Par line, 72 hours) and 10 to 1000 nM on NSD2 [1-1365].

Take `CCn1ccc(C2(N)CCCN(c3cnc(-c4ccc(F)cc4)cc3Cn3cnc4c(N)nccc43)C2)n1` (centres unmarked) [Example 277, 1-((5-(3-amino-3-(1-ethyl-1H-pyrazo1-3-yl)piperidin-1-yl)-2-(4-fluorophenyl)pyridin-4-yl)methyl)-1H-imidazo[4,5-c]pyridin-4-amine]: the IC50 in test [1] (KMS11-Par line, 72 hours) was 2200 nM; on NSD2 [1-1365] it was 10 to 1000 nM.

On to `CCc1cccc([C@@]2(N)CCCN(c3cnc(-c4ccc(F)cc4)cc3Cn3cnc4c(N)ncnc43)C2)n1` [Example 202, (R)-9-((5-(3-amino-3-(6-ethylpyridin-2-yl)piperidin-1-yl)-2-(4-fluorophenyl)pyridin-4-yl)methyl)-9H-purin-6-amine], for which the IC50 in test [1] (KMS11-Par line, 72 hours) was 264 nM; on NSD2 [1-1365] it was 1 to 10 nM.

Consider `Cc1cccc(C[C@@]2(N)CCCN(c3cnc(-c4ccc(F)c(F)c4)cc3Cn3cnc4c(N)ncnc43)C2)n1` [Example 55, (S)-9-((5-(3-amino-3-((6-methylpyridin-2-yl)methyl)piperidin-1-yl)-2-(3,4-difluorophenyl)pyridin-4-yl)methyl)-9H-purin-6-amine], for which the values for the IC50 (in test [1] (setting [2]); at NSD2 [1-1365] (setting [3])) were 910 nM and 1 to 10 nM, respectively.

Take `Cc1cccc([C@@]2(N)CCCN(c3cnc(-c4ccc(F)cc4)cc3Cn3cnc4c(N)nccc43)C2)n1` [Example 261, (R)-1-((5-(3-amino-3-(6-methylpyridin-2-yl)piperidin-1-yl)-2-(4-fluorophenyl)pyridin-4-yl)methyl)-1H-imidazo[4,5-c]pyridin-4-amine]: the IC50 in test [1] (KMS11-Par line, 72 hours) is 235 nM; on NSD2 [1-1365], 1 to 10 nM.

Turning to `Nc1ncnc2c1ncn2Cc1cc(-c2ccc(F)cc2)ncc1N1CCC[C@](N)(c2cccc(C(F)F)n2)C1` [Example 203, (R)-9-((5-(3-amino-3-(6-(difluoromethyl)pyridin-2-yl)piperidin-1-yl)-2-(4-fluorophenyl)pyridin-4-yl)methyl)-9H-purin-6-amine], the IC50 in test [1] (KMS11-Par line, 72 hours) is 389 nM; at NSD2 [1-1365], 1 to 10 nM.
